According to paper PMC9516332 (Frontiers in Oncology, 2022):
Where two headings read alike, the source gives them in different places.

What was measured:
[1] = test system: 134 cancer cell lines; assay: Cell viability assay (ATPlite, 72 hours), IC50 on cancer cell line panel
[2] = test system: AP-1060 (ETV6-NTRK3); assay: Cell viability assay; settings: read-out: IC50 in cell proliferation assay

Compound: COc1cc2ncnc(Nc3ccc(F)c(Cl)c3)c2cc1NC(=O)/C=C/CN1CCCCC1 [dacomitinib]
- IC50 ([1]; Homo sapiens, MOLT-4, read-out: IC50 in cell proliferation assay, MOLT-4 cell line): 3.64 µM
- IC50 ([1]; Homo sapiens, MV4-11, read-out: IC50 in cell proliferation assay, MV4-11 cell line (FLT3 ITD)): 0.23 µM
- IC50 ([1]; Homo sapiens, MeWo, read-out: IC50 in cell proliferation assay, MeWo cell line): 3.92 µM
- IC50 ([1]; Homo sapiens, NCCIT, read-out: IC50 in cell proliferation assay, NCC-IT cell line): 4.43 µM
- IC50 ([1]; Homo sapiens, NCI-H82, read-out: IC50 in cell proliferation assay, cell line NCI-H82): 3.91 µM
- IC50 ([1]; Homo sapiens, NCI-H460, read-out: IC50 in cell proliferation assay, NCI-H460 cell line): 4.69 µM
- IC50 ([1]; Homo sapiens, NCI-H661, read-out: IC50 in cell proliferation assay, NCI-H661 cell line): 3.68 µM
- IC50 ([1]; Homo sapiens, NCI-H716, read-out: IC50 in cell proliferation assay, cell line NCI-H716 (FGFR2-COL14A1)): 4.91 µM
- IC50 ([1]; Homo sapiens, NCI-H1650, read-out: IC50 in cell proliferation assay, NCI-H1650 cell line (EGFR exon19del)): 0.006 µM
- IC50 ([1]; Homo sapiens, NCI-H1975, read-out: IC50 in cell proliferation assay, NCI-H1975 cell line (EGFR p.L858R + p.T790M)): 0.153 µM
- IC50 ([1]; Homo sapiens, NCI-H2228, read-out: IC50 in cell proliferation assay, NCI-H2228 cell line (EML4-ALK)): 4.89 µM
- IC50 ([1]; Homo sapiens, OVCAR-3, read-out: IC50 in cell proliferation assay, cell line OVCAR-3): 0.023 µM
- IC50 ([1]; Homo sapiens, PFSK-1, read-out: IC50 in cell proliferation assay, cell line PFSK-1): 4.48 µM
- IC50 ([1]; Homo sapiens, RL95-2, read-out: IC50 in cell proliferation assay, cell line RL95-2 (EGFR p.A289V)): 0.008 µM
- IC50 ([1]; Homo sapiens, RPMI-7951, read-out: IC50 in cell proliferation assay, cell line RPMI-7951 (BRAF p.V600E)): 3.97 µM
- IC50 ([1]; Homo sapiens, RS4-11, read-out: IC50 in cell proliferation assay, cell line RS4;11): 3.36 µM
- IC50 ([1]; Homo sapiens, Rec1, read-out: IC50 in cell proliferation assay, cell line REC-1): 0.845 µM
- IC50 ([1]; Homo sapiens, SHP77, read-out: IC50 in cell proliferation assay, cell line SHP-77): 5.08 µM
- IC50 ([1]; Homo sapiens, SK-BR-3, read-out: IC50 in cell proliferation assay, cell line SK-BR-3 (ERBB2 amplification)): 0.027 µM
- IC50 ([1]; Homo sapiens, SK-N-AS, read-out: IC50 in cell proliferation assay, cell line SK-N-AS): 3.08 µM
- IC50 ([1]; Homo sapiens, SK-N-FI, read-out: IC50 in cell proliferation assay, cell line SK-N-FI): 3.36 µM
- IC50 ([1]; Homo sapiens, SK-N-MC, read-out: IC50 in cell proliferation assay, cell line SK-N-MC): 2.94 µM
- IC50 ([1]; Homo sapiens, SK-N-SH, read-out: IC50 in cell proliferation assay, cell line SK-N-SH (ALK p.F1174L)): 2.47 µM
- IC50 ([1]; Homo sapiens, SNU-5, read-out: IC50 in cell proliferation assay, cell line SNU-5 (MET amplification)): 3.41 µM
- IC50 ([1]; Homo sapiens, SNU-16, read-out: IC50 in cell proliferation assay, cell line SNU-16 (FGFR2 amplification)): 3.88 µM
- IC50 ([1]; Homo sapiens, SNU-C2B, read-out: IC50 in cell proliferation assay, cell line SNU-C2B (EGFR p.R165Q)): 5.59 µM
- IC50 ([1]; Homo sapiens, SU-DHL-1, read-out: IC50 in cell proliferation assay, cell line SU-DHL-1 (NPM1-ALK)): 3.51 µM
- IC50 ([1]; Homo sapiens, SU-DHL-6, read-out: IC50 in cell proliferation assay, cell line SU-DHL-6): 2.55 µM
- IC50 ([1]; Homo sapiens, SUP-T1, read-out: IC50 in cell proliferation assay, cell line SUP-T1): 4.54 µM
- IC50 ([1]; Homo sapiens, SW48, read-out: IC50 in cell proliferation assay, cell line SW48 (EGFR p.G719S)): 0.000636 µM
- IC50 ([1]; Homo sapiens, SW480, read-out: IC50 in cell proliferation assay, cell line SW480): 4.83 µM
- IC50 ([1]; Homo sapiens, SW626, read-out: IC50 in cell proliferation assay, cell line SW626): 5.24 µM
- IC50 ([1]; Homo sapiens, SW780, read-out: IC50 in cell proliferation assay, cell line SW780 (FGFR3-BAIAP2L1)): 4.61 µM
- IC50 ([1]; Homo sapiens, SW837, read-out: IC50 in cell proliferation assay, cell line SW837): 6.48 µM
- IC50 ([1]; Homo sapiens, SW872, read-out: IC50 in cell proliferation assay, cell line SW872 (BRAF p.V600E)): 5.03 µM
- IC50 ([1]; Homo sapiens, SW900, read-out: IC50 in cell proliferation assay, cell line SW900): 4.74 µM
- IC50 ([1]; Homo sapiens, SW948, read-out: IC50 in cell proliferation assay, cell line SW948): 4.8 µM
- IC50 ([1]; Homo sapiens, SW982, read-out: IC50 in cell proliferation assay, cell line SW982 (BRAF p.V600E)): 3.94 µM
- IC50 ([1]; Homo sapiens, SW-620, read-out: IC50 in cell proliferation assay, cell line SW620): 5.18 µM
- IC50 ([1]; Homo sapiens, T98G, read-out: IC50 in cell proliferation assay, cell line T98G): 4.59 µM
- IC50 ([1]; Homo sapiens, TCC-SUP, read-out: IC50 in cell proliferation assay, cell line TCCSUP): 3.39 µM
- IC50 ([1]; Homo sapiens, THP-1, read-out: IC50 in cell proliferation assay, cell line THP-1): 3.91 µM
- IC50 ([1]; Homo sapiens, U2OS, read-out: IC50 in cell proliferation assay, cell line U2OS): 3.31 µM
- IC50 ([1]; Homo sapiens, U-87 MG, read-out: IC50 in cell proliferation assay, cell line U-87MG ATCC): 4.41 µM
- IC50 ([1]; Homo sapiens, U-118-MG, read-out: IC50 in cell proliferation assay, cell line U-118MG): 3.63 µM
- IC50 ([1]; Homo sapiens, UMUC3, read-out: IC50 in cell proliferation assay, cell line UM-UC-3): 3.19 µM
- IC50 ([1]; Hs766T, read-out: IC50 in cell proliferation assay, Hs 766T cell line): 5.01 µM
- IC50 ([1]; L-82, read-out: IC50 in cell proliferation assay, L-82 cell line (NPM1-ALK)): 1.65 µM
- IC50 ([1]; Rh30, read-out: IC50 in cell proliferation assay, cell line Rh30): 3.93 µM
- IC50 ([1]; read-out: IC50 in cell proliferation assay, 11-18 cell line (EGFR p.L858R)): 0.002 µM
- IC50 ([1]; read-out: IC50 in cell proliferation assay, Hs 852.T cell line): 3.75 µM
- IC50 ([1]; read-out: IC50 in cell proliferation assay, JAR cell line): 3.05 µM
- IC50 ([1]; read-out: IC50 in cell proliferation assay, cell line 5637): 0.031 µM
- IC50 ([1]; read-out: IC50 in cell proliferation assay, cell line A-388): 0.019 µM
- IC50 ([1]; read-out: IC50 in cell proliferation assay, cell line DB): 3.6 µM
- IC50 ([1]; read-out: IC50 in cell proliferation assay, cell line DEL (NPM1-ALK)): 2.04 µM
- IC50 ([1]; read-out: IC50 in cell proliferation assay, cell line ES-2 (BRAF p.V600E)): 2.99 µM
- IC50 ([1]; read-out: IC50 in cell proliferation assay, cell line PA-1): 2.7 µM
- IC50 ([1]; read-out: IC50 in cell proliferation assay, cell line PC-3): 5.26 µM
- IC50 ([1]; read-out: IC50 in cell proliferation assay, cell line RD): 2.53 µM
- IC50 ([1]; read-out: IC50 in cell proliferation assay, cell line RKO (BRAF p.V600E)): 3.58 µM
- IC50 ([1]; read-out: IC50 in cell proliferation assay, cell line RL): 4.15 µM
- IC50 ([1]; read-out: IC50 in cell proliferation assay, cell line RT-4 (FGFR3-TACC3)): 0.014 µM
- IC50 ([1]; read-out: IC50 in cell proliferation assay, cell line SR (NPM1-ALK)): 3.55 µM
- IC50 ([1]; read-out: IC50 in cell proliferation assay, cell line T24): 3.02 µM
- IC50 ([1]; read-out: IC50 in cell proliferation assay, cell line TT (RET p.C634W)): 4.83 µM
- IC50 ([1]; read-out: IC50 in cell proliferation assay, cell line VA-ES-BJ): 3.55 µM
- IC50 [2]: 3.46 µM
